Laboratory results: ChEMBL document CHEMBL3272236, “Synthesis and evaluation of 1,omega-diaryl-l,omega-alkanediamines related to the fibrinolytic bis(tetrahydroisoquinolines) and bis(benzylamines)” (1976)

What follows are compounds tested on Rattus norvegicus (assay: Fibrinolytic activity in ip dosed rat assessed as blood clot lysis for 4 hrs). Conditions: not given.
Assay type: functional
With COc1ccc(C(N)CCCCCCCC2NCCc3cc(OC)c(OC)cc32)cc1OC.Cl (racemic; 31b) the ED50 was 0.5 mg/kg.

Same assay, conditions: Rattus norvegicus, Blood clot, ip, 4 h; read-out: ED50
Compound COc1cc2c(cc1OC)C(CCCCC1NCCc3cc(OC)c(OC)cc31)NCC2.Cl (centres undefined) has an ED50 of 0.3 mg/kg. COc1ccc2c(c1)CCNC2CCCCC1NCCc2cc(OC)ccc21.Cl (centres undefined) showed an ED50 of 2 mg/kg. COc1ccc2c(c1)CCNC2CCCCCCCC1NCCc2cc(OC)ccc21.Cl (centres undefined) was tested, and the ED50 was 6 mg/kg. In the case of COc1ccc(C(N)CCCCC(N)c2ccc(OC)c(OC)c2)cc1OC.Cl (centres undefined), the ED50 was 0.4 mg/kg. COc1cc2c(cc1OC)C(CCCCC1NCCCc3cc(OC)c(OC)cc31)NCCC2.Cl (centres undefined) showed an ED50 of 0.7 mg/kg. With COc1ccc2[nH]c3c(c2c1)CCNC3CCCCC1NCCc2c1[nH]c1ccc(OC)cc21.Cl (centres undefined) the ED50 was 6 mg/kg. COc1ccc2[nH]c3c(c2c1)CCNC3CCCCCCCC1NCCc2c1[nH]c1ccc(OC)cc21.Cl (centres undefined) showed an ED50 of 2 mg/kg. Work on COc1ccc(C(N)CCCCC2NCCc3cc(OC)c(OC)cc32)cc1OC.Cl (centres undefined) yielded an ED50 of 0.9 mg/kg. COc1ccc(C(N)CCCCCCC2NCCc3cc(OC)c(OC)cc32)cc1OC.Cl (centres undefined) gave an ED50 of 1 mg/kg. COc1ccc(CC(N)CCCCC(N)Cc2ccc(OC)c(OC)c2)cc1OC.Cl (centres undefined) showed an ED50 of 15 mg/kg. COc1cc(CCCCCCc2cc(OC)c(OC)cc2C(C)N)c(C(C)N)cc1OC.Cl (centres undefined) was tested, and the ED50 was 4 mg/kg. Compound COc1ccc(C(N)CCCCCCCC2NCCc3cc(OC)c(OC)cc32)cc1OC.Cl (racemic; 31a) has an ED50 of 0.7 mg/kg. With NCCc1c[nH]c2ccc(O)cc12 [SEROTONIN] the ED50 was 1 mg/kg.
